Measured values: patent publication US20240150368A1, “ULK INHIBITORS AND METHODS OF USE THEREOF” (Deciphera Pharmaceuticals, LLC, priority 2022, published 2024)

Columns and labels:
ULK2 kinase = target: T1, ULK2 kinase (Homo sapiens, UniProt Q8IYT8); test: Biochemical assay for ULK2 (coupled pyruvate kinase/lactate dehydrogenase assay); details: 1 mM ATP, 1 nM ULK2; read-out: ULK2 (inhibition of biochemical activity), IC50
T1 construct: (residues 1-306 with N-terminal GST and His tag; ID NO: 2); purchased Signal Chem U02-11G
T1 sequence (Q8IYT8 with tags, fused parts or gaps): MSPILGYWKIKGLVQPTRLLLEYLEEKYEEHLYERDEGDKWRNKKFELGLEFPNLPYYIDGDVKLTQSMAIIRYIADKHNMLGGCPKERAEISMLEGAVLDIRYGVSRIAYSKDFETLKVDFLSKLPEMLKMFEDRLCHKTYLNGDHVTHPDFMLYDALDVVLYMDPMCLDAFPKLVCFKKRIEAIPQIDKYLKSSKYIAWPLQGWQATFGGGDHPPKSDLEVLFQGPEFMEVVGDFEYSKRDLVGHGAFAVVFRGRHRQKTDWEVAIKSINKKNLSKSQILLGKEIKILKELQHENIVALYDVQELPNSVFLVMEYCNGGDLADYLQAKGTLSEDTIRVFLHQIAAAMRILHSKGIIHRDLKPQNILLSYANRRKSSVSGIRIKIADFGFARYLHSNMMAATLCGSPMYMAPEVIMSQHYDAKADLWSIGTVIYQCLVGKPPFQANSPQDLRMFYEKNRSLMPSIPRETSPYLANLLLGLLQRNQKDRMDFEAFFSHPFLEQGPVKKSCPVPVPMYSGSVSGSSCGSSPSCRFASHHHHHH
Procedure, shortened: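 Continuous PK/LDH-coupled NADH oxidation assay (A340) with 1 nM ULK2, 200 μM ULKtide and 1 mM ATP in Tris pH 7.5, 15 mM MgCl2, 1% DMSO, read 6 h at 30° C. Rates from the 2-3 h window converted to percent inhibition against no-compound and known-inhibitor controls; IC50 by four-parameter sigmoidal fit.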

[1] = tested on: ULK kinase substrate ATG13 (pS318-ATG13) in A549 (KRAS mutant) cells; test: pATG13 levels of mutant KRas A549 cells after treatment with ULK inhibitors in combination with trametinib (ELISA); assay type: cell-based, human
Procedure, shortened: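 A549 cells grown overnight were treated with a test-compound dose response plus trametinib at 250 nM final (or DMSO) overnight at 37° C. Lysates were assayed by total-ATG13 capture and biotinylated pS318-ATG13 detection ELISA (450 nm minus 540 nm background); % phosphorylation versus controls gave IC50 values.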

| Structure (SMILES) | IC50 (ULK2 kinase) [µM] | IC50 [1] [µM] |
| --- | --- | --- |
| CC/C(Nc1cnn(C2CCN(C(C)C)CC2)c1)=C1/C(=O)Nc2ccc(C(=O)NC[C@H]3CCCO3)cc21 [Example 1, (R,Z)-3-(1-((1-(1-isopropylpiperidin-4-yl)-1H-pyrazol-4-yl)amino)propylidene)-2-oxo-N-((tetrahydrofuran-2-yl)methyl)indoline-5-carboxamide] | 0.01 to 0.1 | 0.1 to 0.3 |
| CC/C(Nc1ccc(N2C[C@H]3CN(C)C[C@H]3C2)cc1)=C1/C(=O)Nc2ccc(C(=O)NCC(C)C)cc21 [Example 63] | 0.01 to 0.1 | ≤ 0.1 |
| CC/C(Nc1ccc(N2C[C@H]3CN(C)C[C@H]3C2)cc1)=C1/C(=O)Nc2ccc(C(=O)NC[C@H]3CCCO3)cc21 [Example 64] | 0.01 to 0.1 | ≤ 0.1 |
| CC/C(Nc1ccc(N2CC3(CN(C)C3)C2)cc1)=C1/C(=O)Nc2ccc(C(=O)NCC(C)C)cc21 [Example 65] | 0.01 to 0.1 | ≤ 0.1 |
| CC/C(Nc1ccc(N2CC3(CN(C)C3)C2)cc1)=C1/C(=O)Nc2ccc(C(=O)NC[C@H]3CCCO3)cc21 [Example 66] | 0.01 to 0.1 | ≤ 0.1 |
| CC/C(Nc1ccc(N2CC3CC(C2)N3C)cc1)=C1/C(=O)Nc2ccc(C(=O)NCC(C)C)cc21 [Example 67] | 0.01 to 0.1 | ≤ 0.1 |
| CC/C(Nc1ccc(N2CC3CC(C2)N3C)cc1)=C1/C(=O)Nc2ccc(C(=O)NC[C@H]3CCCO3)cc21 [Example 68] | 0.01 to 0.1 | ≤ 0.1 |
| CC/C(Nc1ccc(N2CC3CC2CN3C)cc1)=C1/C(=O)Nc2ccc(C(=O)NCC(C)C)cc21 (stereo not drawn) [Example 69] | 0.01 to 0.1 | ≤ 0.1 |
| CC/C(Nc1ccc(N2CC3CC2CN3C)cc1)=C1/C(=O)Nc2ccc(C(=O)NC[C@H]3CCCO3)cc21 (stereo partly drawn) [Example 70] | 0.01 to 0.1 | ≤ 0.1 |
| CC/C(Nc1ccc(N2CC3CC2CN3C)cc1)=C1/C(=O)Nc2ccc(C(=O)NCC(F)(F)F)cc21 (stereo not drawn) [Example 71] | 0.01 to 0.1 | ≤ 0.1 |
| CC/C(Nc1ccc(N2CCN(C)CC2)nc1)=C1/C(=O)Nc2ccc(C(=O)NCC(F)(F)F)cc21 [Example 74] | 0.1 to 0.5 | 0.1 to 0.3 |
| CC/C(Nc1ccc(N2CCN(C)CC2)cn1)=C1/C(=O)Nc2ccc(C(=O)NCC(F)(F)F)cc21 [Example 75] | ≤ 0.01 | 0.1 to 0.3 |
| CC/C(Nc1cnn(C)c1)=C1/C(=O)Nc2ccc(C(=O)NCC(F)(F)F)cc21 [Example 77] | 0.01 to 0.1 | 0.1 to 0.3 |
| CC/C(Nc1ccc(-c2nc(C)no2)cc1)=C1/C(=O)Nc2ccc(C(=O)NCC(F)(F)F)cc21 [Example 78] | 0.01 to 0.1 | 0.3 to 0.6 |
| CC/C(Nc1ccc(-c2cn(C)nn2)cc1)=C1/C(=O)Nc2ccc(C(=O)NCC(F)(F)F)cc21 [Example 79] | 0.01 to 0.1 | 0.3 to 0.6 |
| CC/C(Nc1cnn(C2CCN(C(C)C)CC2)c1)=C1/C(=O)Nc2ccc(C(=O)NC[C@H]3CC(F)(F)CO3)cc21 [Example 80] | ≤ 0.01 | ≤ 0.1 |
| CC/C(Nc1cnn(C2CCN(C(C)C)CC2)c1)=C1/C(=O)Nc2ccc(C(=O)NCCOC(F)(F)F)cc21 [Example 82] | ≤ 0.01 | 0.3 to 0.6 |
| CC/C(Nc1cnn(C2CCN(C(C)C)CC2)c1)=C1/C(=O)Nc2ccc(C(=O)NC[C@H]3CCCCO3)cc21 [Example 83] | 0.01 to 0.1 | ≤ 0.1 |

Results, then the compound that gave them:

| IC50 (ULK2 kinase) [µM] | IC50 [1] [µM] | Structure (SMILES) |
| --- | --- | --- |
| ≤ 0.01 | > 0.6 | CC/C(Nc1cnn(C2CC3(C2)CN(C)C3)c1)=C1/C(=O)Nc2ccc(C(=O)NCC(F)(F)F)cc21 [Example 84] |
| 0.01 to 0.1 | 0.3 to 0.6 | CC/C(Nc1ccc(N2CC3(COC3)C2)cc1)=C1/C(=O)Nc2ccc(C(=O)NCC(F)(F)F)cc21 [Example 85] |
| 0.01 to 0.1 | 0.3 to 0.6 | CC/C(Nc1cnn(C2CN(C)C2)c1)=C1/C(=O)Nc2ccc(C(=O)NCC(F)(F)F)cc21 [Example 86] |
| 0.01 to 0.1 | 0.3 to 0.6 | CC/C(Nc1cnn(C2CN(C)C2)c1)=C1/C(=O)Nc2ccc(C(=O)NCC(C)C)cc21 [Example 87] |
| 0.01 to 0.1 | 0.1 to 0.3 | CC/C(Nc1cnn(C2CN(C3CCC3)C2)c1)=C1/C(=O)Nc2ccc(C(=O)NC[C@H]3CCCO3)cc21 [Example 88] |
| 0.1 to 0.5 | > 0.6 | CC/C(Nc1cnn(C2CN(C)C2)c1)=C1/C(=O)Nc2ccc(C(=O)NCCOC)cc21 [Example 89] |
| 0.01 to 0.1 | 0.3 to 0.6 | CC/C(Nc1cnn(C2CN(CC)C2)c1)=C1/C(=O)Nc2ccc(C(=O)NC[C@H]3CCCO3)cc21 [Example 90] |
| 0.01 to 0.1 | 0.1 to 0.3 | CC/C(Nc1cnn(C2CN(C(C)C)C2)c1)=C1/C(=O)Nc2ccc(C(=O)NC[C@H]3CCCO3)cc21 [Example 91] |
| 0.1 to 0.5 | ≤ 0.1 | CC/C(Nc1ccc(N2CCN(C(C)C)CC2)cn1)=C1/C(=O)Nc2cc(F)c(C(=O)NCC(F)(F)F)cc21 [Example 92] |
